Test results taken from the supplement of paper PMC6045584.
± gives the standard deviation of the averaged measurements.

Columns and labels:
OLAPARIB = compound: O=C(c1cc(Cc2n[nH]c(=O)c3ccccc23)ccc1F)N1CCN(C(=O)C2CC2)CC1 [OLAPARIB]; assay: surviving fraction relative to DMSO-only wells; higher = less growth inhibition; conditions: exposure time: 5 days
In short: (§1)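 After seeding at 250–500 cells per well in 384-well plates and a 24-hour wait, log-phase tumour cell lines were exposed without interruption for five days to inhibitors at 0.5, 1, 5, 10, 50, 100, 500 and 1000 nM. CellTiter-Glo luminescence was recorded after 10 minutes at room temperature. Viability is reported as surviving fraction, the luminescence normalised to the median of DMSO-only wells.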

FORETINIB = compound: COc1cc2c(Oc3ccc(NC(=O)C4(C(=O)Nc5ccc(F)cc5)CC4)cc3F)ccnc2cc1OCCCN1CCOCC1 [FORETINIB]; assay: as above; conditions: exposure time: 5 days
In short: as §1

Row | Test System | surviving fraction (OLAPARIB; 0.5 nM) | surviving fraction (OLAPARIB; 1 nM) | surviving fraction (OLAPARIB; 5 nM) | surviving fraction (OLAPARIB; 10 nM) | surviving fraction (OLAPARIB; 50 nM) | surviving fraction (OLAPARIB; 100 nM) | surviving fraction (OLAPARIB; 500 nM) | surviving fraction (OLAPARIB; 1000 nM) | surviving fraction (FORETINIB; 0.5 nM) | surviving fraction (FORETINIB; 1 nM) | surviving fraction (FORETINIB; 5 nM) | surviving fraction (FORETINIB; 10 nM) | surviving fraction (FORETINIB; 50 nM) | surviving fraction (FORETINIB; 100 nM) | surviving fraction (FORETINIB; 500 nM) | surviving fraction (FORETINIB; 1000 nM)
1 | G292 BONE | 1.01 ± 0.014 | 1.01 ± 0.037 | 1.01 ± 0.016 | 1.02 ± 0.017 | 0.977 ± 0.022 | 0.971 ± 0.046 | 0.872 ± 0.037 | 0.831 ± 0.02 | 1.01 ± 0.049 | 0.963 ± 0.051 | 1.04 ± 0.015 | 1.02 ± 0.046 | 0.905 ± 0.03 | 0.839 ± 0.023 | 0.351 ± 0.018 | 0.171 ± 0.02
2 | HCC38 BREAST | 1.13 ± 0.12 | 1.04 ± 0.039 | 1.05 ± 0.26 | 1.05 ± 0.22 | 0.656 ± 0.17 | 0.6 ± 0.094 | 0.441 ± 0.098 | 0.432 ± 0.074 | 1.05 ± 0.18 | 1.01 ± 0.34 | 0.885 ± 0.2 | 1.11 ± 0.24 | 1.03 ± 0.41 | 0.901 ± 0.15 | 0.521 ± 0.077 | 0.428 ± 0.12
3 | HCC70 BREAST | 1.15 ± 0.043 | 1.08 ± 0.038 | 1.13 ± 0.082 | 1.15 ± 0.049 | 1.1 ± 0.16 | 1.05 ± 0.064 | 0.983 ± 0.069 | 0.928 ± 0.12 | 1.08 ± 0.04 | 1.13 ± 0.023 | 1.13 ± 0.043 | 1.11 ± 0.046 | 1.17 ± 0.066 | 1.2 ± 0.044 | 1.1 ± 0.1 | 0.718 ± 0.16
4 | HMLE3 BREAST | 1.01 ± 0.015 | 0.976 ± 0.039 | 1.09 ± 0.097 | 1.06 ± 0.057 | 0.972 ± 0.042 | 0.962 ± 0.12 | 0.911 ± 0.07 | 0.835 ± 0.072 | 1.08 ± 0.031 | 1.15 ± 0.075 | 1.11 ± 0.023 | 1.07 ± 0.011 | 0.913 ± 0.1 | 0.86 ± 0.054 | 0.558 ± 0.076 | 0.168 ± 0.023
5 | HMT3552 BREAST | 0.96 | 0.909 | 0.92 | 0.865 | 1.07 | 0.858 | 0.913 | 0.742 | 1.02 ± 0.069 | 1.03 ± 0.05 | 1.02 ± 0.017 | 0.928 ± 0.12 | 0.955 ± 0.058 | 0.971 ± 0.013 | 0.599 ± 0.034 | 0.114 ± 0.0027
6 | HS57T BREAST | 1.09 ± 0.06 | 1.11 ± 0.036 | 1.09 ± 0.05 | 1.13 ± 0.05 | 1.1 ± 0.022 | 1.04 ± 0.053 | 0.999 ± 0.024 | 0.914 ± 0.067 | 1.05 ± 0.066 | 1.09 ± 0.08 | 1.15 ± 0.03 | 1.07 ± 0.045 | 1.06 ± 0.06 | 1.02 ± 0.083 | 0.515 ± 0.039 | 0.47 ± 0.024
7 | HS578T BREAST | 0.886 ± 0.076 | 0.911 ± 0.043 | 0.937 ± 0.14 | 0.853 ± 0.12 | 0.837 ± 0.079 | 0.87 ± 0.061 | 0.713 ± 0.093 | 0.705 ± 0.066 | 1.01 ± 0.084 | 1.09 ± 0.079 | 1.2 ± 0.19 | 1.18 ± 0.038 | 1.16 ± 0.17 | 1.12 ± 0.21 | 0.655 ± 0.088 | 0.585 ± 0.039
